According to the NIST ThermoML archive (doi:10.1016/j.jct.2017.12.015):
± gives the expanded uncertainty stated by the source. One block for each compound: values may come before it.

What was measured:
[1] = refractive index (Na D-line) (dimensionless); conditions: 298 K; 101.33 kPa; Liquid; Standard Abbe refractometry
[2] = Liquid, Ebulliometric method (Recirculating still)

refractive index [1]: 1.40299 ± 0.001
vapor or sublimation pressure ([2]; 323.22 K): 36.4 ± 0.3 kPa
vapor or sublimation pressure ([2]; 327.67 K): 43 ± 0.3 kPa
vapor or sublimation pressure ([2]; 337.97 K): 62.1 ± 0.3 kPa
vapor or sublimation pressure ([2]; 341.54 K): 70.1 ± 0.3 kPa
vapor or sublimation pressure ([2]; 347.21 K): 84.4 ± 0.3 kPa
vapor or sublimation pressure ([2]; 350.53 K): 93.8 ± 0.4 kPa
vapor or sublimation pressure ([2]; 352.84 K): 100.8 ± 0.4 kPa
SMILES: CC1CCCO1 (configuration not stated) [2-methyltetrahydrofuran]

SMILES: CC(C)=O [acetone]
refractive index [1]: 1.3555 ± 0.001

refractive index [1]: 1.3325 ± 0.001
SMILES: O [water]

refractive index [1]: 1.41833 ± 0.001
vapor or sublimation pressure ([2]; 340.92 K): 29.4 ± 0.2 kPa
vapor or sublimation pressure ([2]; 345.38 K): 34.6 ± 0.2 kPa
vapor or sublimation pressure ([2]; 350.4 K): 41.4 ± 0.3 kPa
vapor or sublimation pressure ([2]; 356.3 K): 50.7 ± 0.3 kPa
vapor or sublimation pressure ([2]; 363.57 K): 64.4 ± 0.3 kPa
vapor or sublimation pressure ([2]; 366.69 K): 71.1 ± 0.3 kPa
vapor or sublimation pressure ([2]; 369.78 K): 78.3 ± 0.3 kPa
vapor or sublimation pressure ([2]; 374.39 K): 90 ± 0.3 kPa
vapor or sublimation pressure ([2]; 377.89 K): 99.8 ± 0.3 kPa
SMILES: COC1CCCC1 [methoxycyclopentane]

SMILES: O=Cc1ccco1 [2-furaldehyde]
refractive index [1]: 1.52364 ± 0.001

refractive index [1]: 1.37203 ± 0.001
SMILES: CC(=O)O [acetic acid]
